Reference: ChEMBL document CHEMBL3988181, “GlaxoSmithKline Published Kinase Inhibitor Set 2 Onchocerca lienalis Screening Data”

Test: GSK PKIS2: Screen against O. lienalis microfilariae, single point, at 3.1uM to assess reduction in motility. Compounds were also tested for cytotoxicity against Rhesus Monkey LLCMK2 cells.
Type: functional, Onchocerca lienalis, LLC-MK2
Conditions: CELL_LINE LLCMK2; CELL_SUPPLIER ECACC; CONC 3.1 uM; ORGANISM_SUPPLIER Extracted from peri-umbilical skin obtained from naturally infected cattle in the UK; temperature 37 degree C
In the case of `O=C(NC1CCN(c2ccnc(Nc3ccc(F)cc3)n2)C1)c1cc2ccccc2s1` (stereo not given), the “MOTILITY REDUCTION/CYTOTOXICITY” value is reported as 0%.
For `Cc1ccc(-c2nc(Nc3ccncc3)c3ccccc3n2)s1`, the “MOTILITY REDUCTION/CYTOTOXICITY” value was 0%.
With `Cc1cc(N2CCC(NS(=O)(=O)c3ccc(F)cc3)CC2)nc(Nc2cccc(C#N)c2)n1` the “MOTILITY REDUCTION/CYTOTOXICITY” value was 0%.
For `NCC(NC(=O)c1cc(-c2cn[nH]c2)c(-c2ccnc3[nH]ccc23)s1)c1ccccc1` (stereo not given), the “MOTILITY REDUCTION/CYTOTOXICITY” value was 0%.
With `Cc1ccc(NC(=O)Nc2cc(C(C)(C)C)nn2-c2ccccc2)cc1` the “MOTILITY REDUCTION/CYTOTOXICITY” value was 0%.
With `Cc1cccc2c(-c3ccncc3)c(-c3ccc(F)cc3)nn12` the “MOTILITY REDUCTION/CYTOTOXICITY” value was 46.7%.
In the case of `COc1cc(Nc2nccc(N3CCC(NC(=O)Nc4cccc(C(C)=O)c4)C3)n2)cc(OC)c1OC` (stereo not given), the “MOTILITY REDUCTION/CYTOTOXICITY” value is reported as 100%.
With `CN1CCN(Cc2cccc(-c3ccc4c(Nc5ccc(Oc6ccccc6)cc5)ccnc4c3)c2)CC1` the “MOTILITY REDUCTION/CYTOTOXICITY” value was 100%.
In the case of `Cc1ccn2nc(-c3ccc(F)cc3)c(-c3ccncc3)c2c1`, the “MOTILITY REDUCTION/CYTOTOXICITY” value is reported as 0%.
With `CCOC(=O)N1CCC(n2cnc(-c3ccc(F)cc3)c2-c2ccnc(N)n2)CC1` the “MOTILITY REDUCTION/CYTOTOXICITY” value was 0%.
In the case of `O=C1NC(=O)C(c2ccccc2)=C1Nc1cccc(O)c1`, the “MOTILITY REDUCTION/CYTOTOXICITY” value is reported as 0%.
In the case of `Cc1cc(-c2c(-c3ccc(F)cc3)ncn2CCCN2CCOCC2)nc(N)n1`, the “MOTILITY REDUCTION/CYTOTOXICITY” value is reported as 0%.
For `COc1cc2ncnc(Nc3cccc(Br)c3)c2cc1OC`, the “MOTILITY REDUCTION/CYTOTOXICITY” value was 60%.
For `C[C@@H](Oc1cc(-n2cnc3ccc(NC(=O)NC(C)(C)C)cc32)sc1C(N)=O)c1ccccc1Cl`, the “MOTILITY REDUCTION/CYTOTOXICITY” value was 60%.
With `COc1cc(Nc2ncc3c(C)nc(-c4cc5ccccc5[nH]4)n3n2)cc(OC)c1OC` the “MOTILITY REDUCTION/CYTOTOXICITY” value was 53.4%.
For `COc1cc2c(Nc3ccc(NC(=O)c4ccccc4)cc3)ncnc2cc1OCCCN1CCOCC1`, the “MOTILITY REDUCTION/CYTOTOXICITY” value was 0%.
With `Nc1n[nH]c2cnc(-c3ccccc3)cc12` the “MOTILITY REDUCTION/CYTOTOXICITY” value was 0%.
In the case of `CC(=O)Nc1ccc(COc2ccc(Nc3ccnc4cc(-c5ccccn5)ccc34)cc2)cc1`, the “MOTILITY REDUCTION/CYTOTOXICITY” value is reported as 100%.
For `Clc1ccc(-c2cc(-c3c[nH]nc3-c3ccccn3)ccn2)cc1`, the “MOTILITY REDUCTION/CYTOTOXICITY” value was 0%.
With `C=CC(=O)Nc1cc2c(Nc3ccc(F)c(Cl)c3)ncnc2cc1OCCCN1CCOCC1` [CANERTINIB] the “MOTILITY REDUCTION/CYTOTOXICITY” value was 0%.
